Residues, ends and D or L forms follow the SMILES beside them. *: point of attachment. X1 = CCOC(=O)/C=C/[C@H](CC(C)C)N*
Experiment: Half life in human plasma
Format: ADME, cell-free

half-life, > 6 h:
CCOC(=O)/C=C/[C@H](CC(C)C)NC(=O)C[C@@H]1NC(=O)[C@H](CC(C)C)NC(=O)[C@H](CC(C)C)NC(=O)[C@H](Cc2ccccc2)NC1=O (cyclo(D(X1)FLL))
CCOC(=O)/C=C/[C@H](CC(C)C)NC(=O)C[C@@H]1NC(=O)[C@H](CO)NC(=O)[C@H](C(C)C)NC(=O)[C@H](Cc2ccccc2)NC1=O (cyclo(D(X1)FVS))
CCOC(=O)/C=C/[C@H](CC(C)C)NC(=O)CC[C@@H]1NC(=O)[C@H](CC(C)C)NC(=O)[C@H](CC(C)C)NC(=O)[C@H](Cc2ccccc2)NC1=O (cyclo(E(X1)FLL))

Source: ChEMBL document CHEMBL1142341, “Vinyl ester-based cyclic peptide proteasome inhibitors” (Bioorg Med Chem Lett, 2008)
